Results: patent US20240391862A1, “(1,4,5-TRISUBSTITUTED-1H-PYRAZOL-3-YL)OXY-2-ALKOXY ALKYL ACIDS AND THEIR DERIVATIVES, THEIR SALTS AND THEIR USE AS HERBICIDAL AGENTS” (Bayer AKtiengesellschaft, priority 2021, published 2024)

Tests used:
Experiment in all cases: Post-emergence herbicidal effect, greenhouse pot test
[1] = test system: POLCO; assay type: in vivo, Fallopia convolvulus
Source text: (§1) • ALOMY: Alopecurus myosuroides SETVI: Setaria viridis • AVEFA: Avena fatua POLCO: Fallopia convolvulus • AMARE: Amaranthus retroflexus ECHCG: Echinochloa crus-galli • LOLRJ: Lolium rigidum STEME: Stellaria media • VERPE: Veronica persica MATIN: Tripleurospermum inodorum • DIGSA: Digitaria sanguinalis ABUTH: Abutylon threophrasti • TRZAS: Triticum aestivum VIOTR: Viola tricolor • BRSNW: Brassica napus ZEAMX: Zea mays • PHBPU: Ipomoea purpurea GLXMA: Glycine max • ORYSA: Oryza sativa HORMU: Hordeum murinum
(§2) Seeds of monocotyledonous and dicotyledonous weeds and crop plants are placed in sandy loam in plastic or organic planting pots, covered with soil and cultivated in a greenhouse under controlled growth conditions. 2 to 3 weeks after sowing, the trial plants are treated at the one-leaf stage. The compounds of the invention, formulated in the form of wettable powders (WP) or as emulsion concentrates (EC), are then sprayed onto the green parts of the plants as aqueous suspension or emulsion with addition of 0.5% additive at a water application rate of 600 l/ha (converted). After the test plants have been kept in the greenhouse under optimum growth conditions for about 3 weeks, the activity of the preparations is rated visually in comparison to untreated controls. For example, 100% activity=the plants have died, 0% activity=like control plants.
(§3) Tables 20a to 38c below show the effects/crop compatibilities of selected compounds of the general formula (I) on various harmful plants at an application rate corresponding to 20 to 320 g/ha, which were obtained by the trial procedure specified above.

[2] = test system: SETVI; assay type: in vivo, Setaria viridis
Source text: as §1, §2, §3

[3] = test system: ECHCG; assay type: in vivo, Echinochloa crus-galli
Source text: as §1, §2, §3

[4] = test system: ABUTH; assay type: in vivo, Abutilon theophrasti; conditions: visual rating about 3 weeks after treatment
Source text: as §1, §2, §3

[5] = test system: MATIN; assay type: in vivo, Tripleurospermum inodorum
Source text: as §1, §2, §3

[6] = test system: ALOMY; assay type: in vivo, Alopecurus myosuroides; conditions: visual rating about 3 weeks after treatment
Source text: as §1, §2, §3

[7] = test system: KCHSC; assay type: in vivo; conditions: 320 g/ha
Description: as §2, with “plants. Tables 20a to 38c below show the effects/crop compatibilities of selected compounds of the general formula (I) on various harmful plants at an application rate corresponding to 20 to 320 g/ha, which were obtained by the trial procedure specified above.” for “plants.”

[8] = test system: AVEFA; assay type: in vivo, Avena fatua; conditions: visual rating about 3 weeks after treatment
Source text: as §1, §2, §3

[9] = test system: PHBPU; assay type: in vivo, Ipomoea purpurea
Source text: as §1, §2, §3

[10] = test system: VERPE; assay type: in vivo, Veronica persica
Source text: as §1, §2, §3

[11] = test system: VIOTR; assay type: in vivo, Viola tricolor
Source text: as §1, §2, §3

[12] = test system: LOLRI; assay type: in vivo, Lolium rigidum
Source text: as §1, §2, §3

[13] = test system: AMARE; assay type: in vivo, Amaranthus retroflexus; conditions: Amaranthus retroflexus, 504 h, 320 g/ha, visual rating about 3 weeks after treatment, read-out: Post-emergence effect against AMARE
Source text: as §1, §2, §3

SMILES: COC(Oc1nn(-c2cc(F)ccc2F)c(-c2cncc(F)c2)c1C1CC1)C(=O)O (stereo not shown) [Example I-109]
- pest or weed control at 80 g/ha ([1]; Fallopia convolvulus, 504 h, 80 g/ha, read-out: Post-emergence effect against POLCO in %): 80%
- pest or weed control at 320 g/ha ([1]; Fallopia convolvulus, 504 h, 320 g/ha, read-out: Post-emergence effect against POLCO in %): 90%
- pest or weed control at 320 g/ha ([2]; Setaria viridis, 504 h, 320 g/ha, read-out: Post-emergence effect against SETVI in %): 80%
- pest or weed control at 20 g/ha ([3]; Echinochloa crus-galli, 504 h, 20 g/ha, visual rating about 3 weeks after treatment, read-out: Post-emergence effect against ECHCG): 80%
- pest or weed control at 80 g/ha ([3]; Echinochloa crus-galli, 504 h, 80 g/ha, read-out: Post-emergence effect against ECHCG in %): 90%
- pest or weed control at 320 g/ha ([3]; Echinochloa crus-galli, 504 h, 320 g/ha, read-out: Post-emergence effect against ECHCG in %): 90%
- pest or weed control at 20 g/ha ([4]; Abutilon theophrasti, 504 h, 20 g/ha, read-out: Post-emergence effect against ABUTH): 80%
- pest or weed control at 80 g/ha ([4]; Abutilon theophrasti, 504 h, 80 g/ha, read-out: Post-emergence effect against ABUTH): 80%
- pest or weed control at 320 g/ha ([4]; Abutilon theophrasti, 504 h, 320 g/ha, read-out: Post-emergence effect against ABUTH): 90%
- pest or weed control at 320 g/ha ([5]; Tripleurospermum inodorum, 504 h, 320 g/ha, read-out: Post-emergence effect against MATIN in %): 80%
- pest or weed control at 320 g/ha ([6]; Alopecurus myosuroides, 504 h, 320 g/ha, read-out: Post-emergence effect against ALOMY): 90%
- pest or weed control at 320 g/ha ([7]; 504 h, read-out: Post-emergence effect against KCHSC in %): 80%
- pest or weed control at 80 g/ha ([8]; Avena fatua, 504 h, 80 g/ha, read-out: Post-emergence effect against AVEFA): 80%
- pest or weed control at 320 g/ha ([8]; Avena fatua, 504 h, 320 g/ha, read-out: Post-emergence effect against AVEFA): 90%
- pest or weed control at 80 g/ha ([9]; Ipomoea purpurea, 504 h, 80 g/ha, read-out: Post-emergence effect against PHBPU in %): 90%
- pest or weed control at 320 g/ha ([9]; Ipomoea purpurea, 504 h, 320 g/ha, read-out: Post-emergence effect against PHBPU in %): 90%
- pest or weed control at 20 g/ha ([10]; Veronica persica, 504 h, 20 g/ha, read-out: Post-emergence effect against VERPE in %): 80%
- pest or weed control at 80 g/ha ([10]; Veronica persica, 504 h, 80 g/ha, read-out: Post-emergence effect against VERPE in %): 80%
- pest or weed control at 320 g/ha ([10]; Veronica persica, 504 h, 320 g/ha, read-out: Post-emergence effect against VERPE in %): 80%
- pest or weed control at 80 g/ha ([11]; Viola tricolor, 504 h, 80 g/ha, read-out: Post-emergence effect against VIOTR in %): 90%
- pest or weed control at 320 g/ha ([11]; Viola tricolor, 504 h, 320 g/ha, read-out: Post-emergence effect against VIOTR in %): 90%
- pest or weed control at 80 g/ha ([12]; Lolium rigidum, 504 h, 80 g/ha, read-out: Post-emergence effect against LOLRI in %): 90%
- pest or weed control at 320 g/ha ([12]; Lolium rigidum, 504 h, 320 g/ha, read-out: Post-emergence effect against LOLRI in %): 90%

SMILES: COC(Oc1nn(-c2cc(F)ccc2F)c(-c2cncc(F)c2)c1C1CC1)C(=O)O (stereo not shown) [Example I-110]
- Post-emergence effect against POLCO in % ([1]; 80 g/ha): 80%
- Post-emergence effect against POLCO in % ([1]; 320 g/ha): 90%
- pest or weed control at 20 g/ha ([1]; Fallopia convolvulus, 504 h, 20 g/ha, read-out: Post-emergence effect against POLCO in %): 80%
- Post-emergence effect against SETVI in % ([2]; 320 g/ha): 80%
- pest or weed control at 80 g/ha ([2]; Setaria viridis, 504 h, 80 g/ha, read-out: Post-emergence effect against SETVI in %): 80%
- Post-emergence effect against ECHCG ([3]; 20 g/ha, visual rating about 3 weeks after treatment): 90%
- Post-emergence effect against ECHCG in % ([3]; 80 g/ha): 90%
- Post-emergence effect against ECHCG in % ([3]; 320 g/ha): 90%
- Post-emergence effect against ABUTH ([4]; 20 g/ha): 80%
- Post-emergence effect against ABUTH ([4]; 80 g/ha): 90%
- Post-emergence effect against ABUTH ([4]; 320 g/ha): 90%
- Post-emergence effect against MATIN in % ([5]; 320 g/ha): 80%
- pest or weed control at 80 g/ha ([5]; Tripleurospermum inodorum, 504 h, 80 g/ha, read-out: Post-emergence effect against MATIN in %): 80%
- Post-emergence effect against ALOMY ([6]; 320 g/ha): 100%
- pest or weed control at 80 g/ha ([6]; Alopecurus myosuroides, 504 h, 80 g/ha, read-out: Post-emergence effect against ALOMY): 80%
- Post-emergence effect against KCHSC in % [7]: 80%
- pest or weed control at 320 g/ha [13]: 80%
- Post-emergence effect against AVEFA ([8]; 80 g/ha): 90%
- Post-emergence effect against AVEFA ([8]; 320 g/ha): 90%
- Post-emergence effect against PHBPU in % ([9]; 80 g/ha): 90%
- Post-emergence effect against PHBPU in % ([9]; 320 g/ha): 90%
- pest or weed control at 20 g/ha ([9]; Ipomoea purpurea, 504 h, 20 g/ha, read-out: Post-emergence effect against PHBPU in %): 90%
- Post-emergence effect against VERPE in % ([10]; 20 g/ha): 80%
- Post-emergence effect against VERPE in % ([10]; 80 g/ha): 80%
- Post-emergence effect against VERPE in % ([10]; 320 g/ha): 90%
- Post-emergence effect against VIOTR in % ([11]; 80 g/ha): 80%
- Post-emergence effect against VIOTR in % ([11]; 320 g/ha): 80%
- pest or weed control at 20 g/ha ([11]; Viola tricolor, 504 h, 20 g/ha, read-out: Post-emergence effect against VIOTR in %): 80%
- Post-emergence effect against LOLRI in % ([12]; 320 g/ha): 90%
